Reference: patent US12492210B2, “Tricyclic compounds and their use” (HUTCHISON MEDIPHARMA LIMITED, priority 2019, dated 2025)

Assays:
[1] = test system: p-RSK (Thr359) in colo205 cells; experiment: p-RSK (Thr359) Acumen Assay in Colo205; format: cell-based; settings: Homo sapiens, COLO 205, 1 hour compound incubation, read-out: Example 19 IC50
Procedure, shortened: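 Colo205 cells (4000/well, seeded overnight in 10% FBS) were exposed 1 hour at 37° C to compound added from a 3–0.001 μM dilution series in 5% DMSO. Cells were then fixed, permeabilised and immunostained for p-RSK Thr359, with PI counterstain. Acumen cytometry gave the percentage of positive cells, normalised to untreated wells and 3 uM GDC0994 wells, for the IC50 fit.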

MAPK1(ERK2) enzyme = molecular target: T1, MAPK1(ERK2) enzyme (Homo sapiens, UniProt P28482); experiment: Z-Lyte Kinase Assay of ERK2; format: biochemical; settings: read-out: Example 18 IC50
T1 construct: purchased Invitrogen PV3313
T1 sequence (P28482 whole entry): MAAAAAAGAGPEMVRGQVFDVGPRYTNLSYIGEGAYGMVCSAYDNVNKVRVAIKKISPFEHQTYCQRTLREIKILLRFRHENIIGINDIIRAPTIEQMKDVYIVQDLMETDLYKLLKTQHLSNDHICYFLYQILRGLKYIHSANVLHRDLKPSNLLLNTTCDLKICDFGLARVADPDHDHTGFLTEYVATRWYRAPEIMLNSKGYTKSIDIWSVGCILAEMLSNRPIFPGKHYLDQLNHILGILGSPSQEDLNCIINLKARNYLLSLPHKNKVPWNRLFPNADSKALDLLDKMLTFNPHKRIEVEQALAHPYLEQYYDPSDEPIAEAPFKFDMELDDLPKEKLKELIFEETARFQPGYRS
Procedure, shortened: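 FRET-based Z-LYTE assay using ERK2 kinase with Ser/Thr3 peptide; compound tested at 0.00046–1 μM final in 2% DMSO. Kinase reaction ran 1 h at 25-30° C, followed by 1 h development. The coumarin/fluorescein emission ratio (445/520 nm) gave % phosphorylation, and IC50 was fitted from inhibition relative to uninhibited control.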

| IC50 [1] | IC50 (MAPK1(ERK2) enzyme) | SMILES |
| --- | --- | --- |
| > 100 nM | ≤ 5 nM | Cc1cnc(Nc2ccnn2C)nc1-c1cc2n(c1)CC(F)(F)Cn1c-2nnc1C1(C(F)(F)F)CCC1 [Compound 264] |
| > 100 nM | 5 to 10 nM | Cc1cnc(NC2CCc3ncnn3C2)nc1-c1cc2n(c1)C[C@H](C)n1c-2nnc1C(F)(F)c1ccccc1F (stereo partly drawn) [Compound 280] |
| ≤ 100 nM | ≤ 5 nM | Cc1cnc(Nc2ccnn2C)nc1-c1cc2c3nnc(Cc4cccc(F)c4)n3ccn2c1 [Compound 283] |
| ≤ 100 nM | ≤ 5 nM | [2H]C([2H])([2H])n1nccc1Nc1cc(-c2cc3n(c2)CCCn2c-3nnc2C2(C(F)(F)F)CCC2)c(C)cn1 [Compound 240] |
| ≤ 100 nM | 5 to 10 nM | Cc1cnc(Nc2nncs2)nc1-c1cc2n(c1)C[C@H](C)n1c-2nnc1C(F)(F)c1ccccc1F [Compound 287] |
| ≤ 100 nM | 5 to 10 nM | Cn1nccc1Nc1cc(-c2cc3n(c2)CCCn2c-3nnc2C2(C(F)(F)F)CCC2)c(C(F)(F)F)cn1 [Compound 271] |
| > 100 nM | 5 to 10 nM | Cn1nccc1Nc1cc(-c2cc3n(c2)CCCn2c-3nnc2C2(C(F)(F)F)CCC2)c(C#N)cn1 [Compound 248] |
| ≤ 100 nM | 5 to 10 nM | Cc1cnc(Nc2ccnn2CCO)nc1-c1cc2n(c1)C[C@H](C)n1c-2nnc1C(F)(F)c1ccccc1F [Compound 293] |
| > 100 nM | 5 to 10 nM | Cc1cnc(Nc2ccnn2C)cc1-c1cc2n(c1)CC1(CCC1)n1c-2nnc1C(F)(F)C(F)F [Compound 242] |
| ≤ 100 nM | ≤ 5 nM | COC[C@H]1Cn2cc(-c3nc(Nc4ccnn4C)ncc3C)nc2-c2nnc(C(F)(F)c3ccccc3Cl)n21 [Compound 220, (R)-4-(3-((2-chlorophenyl)difluoromethyl)-5-(methoxymethyl)-5,6-dihydroimidazo[1,2-a][1,2,4]triazolo[3,4-c]pyrazin-9-yl)-5-methyl-N-(1-methyl-1H-pyrazol-5-yl)pyrimidin-2-amine] |
| ≤ 100 nM | ≤ 5 nM | Cn1nccc1Nc1nccc(-c2cn3c(c2Cl)-c2nnc(Cc4ccccc4F)n2CCC3)n1 [Compound 245] |
| > 100 nM | ≤ 5 nM | Cc1cnc(Nc2ccnn2C)cc1-c1cc2n(c1)CC(C)(C)n1c-2nnc1C(F)(F)C(F)F [Compound 234] |
| > 100 nM | ≤ 5 nM | Cc1cnc(NC2CC(F)(F)C2)nc1-c1cc2n(c1)CCCn1c-2nnc1C1(C(F)(F)F)CCC1 [Compound 278] |
| > 100 nM | > 10 nM | CC[C@H]1Cn2cc(-c3nc(Nc4ccnn4C)ncc3C)cc2-c2nnc(C(F)(F)c3ccccc3F)n21 [Compound 265] |
| ≤ 100 nM | 5 to 10 nM | Cn1nccc1Nc1cc(-c2cc3n(c2)CCCn2c(COc4ccccc4F)nnc2-3)c(F)cn1 [Compound 244] |
| ≤ 100 nM | ≤ 5 nM | Cc1cnc(Nc2ccnn2C)nc1-c1cc2n(c1)CC1(CC1)n1c-2nnc1C1(C(F)(F)F)CCC1 [Compound 250] |
| ≤ 100 nM | 5 to 10 nM | Cn1nccc1Nc1cc(-c2cc3n(c2)CC(F)(F)Cn2c(Cn4ccc(F)c4C#N)nnc2-3)c(Cl)cn1 [Compound 218] |
| > 100 nM | ≤ 5 nM | Cc1cnc(Nc2ccnn2C)nc1-c1cc2n(c1)C[C@H](C)n1c-2nnc1C1(C(F)(F)F)CCC1 [Compound 238] |
| > 100 nM | ≤ 5 nM | Cn1nccc1Nc1nccc(-c2cn3c(c2F)-c2nnc(C4(C(F)(F)F)CCC4)n2CCC3)n1 [Compound 243] |
| ≤ 100 nM | > 10 nM | Cn1nccc1Nc1cc(-c2cc3n(c2)CCCn2c(COc4ccccc4F)nnc2-3)c(C(F)(F)F)cn1 [Compound 272] |

More lines, now with the values behind:

| SMILES | IC50 [1] | IC50 (MAPK1(ERK2) enzyme) |
| --- | --- | --- |
| Cn1nccc1Nc1cc(-c2cc3n(c2)C[C@H](CF)n2c-3nnc2C(F)(F)c2nccs2)c(Cl)cn1 [Compound 161] | ≤ 100 nM | ≤ 5 nM |
| Cc1cnc(Nc2ccnn2C)nc1-c1cc2n(c1)C[C@H](CF)n1c-2nnc1C(F)(F)c1ccc(F)cc1F [Compound 188] | ≤ 100 nM | 5 to 10 nM |
| Cc1cnc(Nc2ccnn2C)cc1-c1cc2n(c1)C[C@H](CF)n1c-2nnc1C(F)(F)c1ccc(F)cc1F [Compound 184] | ≤ 100 nM | 5 to 10 nM |
| Cc1cnc(Nc2ccnn2C)cc1-c1cc2n(c1)CC(C)Cn1c-2nnc1C(F)(F)C(F)F (stereo not drawn) [Compound 60] | ≤ 100 nM | ≤ 5 nM |
| Cc1cnc(Nc2ccnn2C(F)F)nc1-c1cc2n(c1)C[C@H](C)n1c-2nnc1C(F)(F)c1ccccc1F [Compound 187] | ≤ 100 nM | > 10 nM |
| Cn1nccc1Nc1cc(-c2cc3n(c2)CCCn2c-3nnc2C(O)c2ccccc2)c(Cl)cn1 (stereo not drawn) [Compound 18] | > 100 nM | 5 to 10 nM |
| Cc1cnc(Nc2ccnn2C)cc1-c1cc2n(c1)C[C@H](CF)n1c-2nnc1C(F)(F)c1sccc1Cl [Compound 195] | ≤ 100 nM | ≤ 5 nM |
| Cn1nccc1Nc1cc(-c2cc3n(c2)C[C@H](CF)n2c(Cc4ccccc4F)nnc2-3)c(Cl)cn1 [Compound 92] | ≤ 100 nM | 5 to 10 nM |
| Cc1c(-c2ccnc(Nc3ccnn3C)n2)cn2c1-c1nnc(Nc3ccccc3F)n1CCC2 [Compound 42] | > 100 nM | ≤ 5 nM |
| C[C@H](Oc1ccccc1F)c1nnc2n1CC(C)(C)Cn1cc(-c3ccnc(Nc4ccnn4C)n3)cc1-2 [Compound 44, (S)-4-(3-(1-(2-fluorophenoxy)ethyl)-6,6-dimethyl-6,7-dihydro-5H-pyrrolo[1,2-a][1,2,4]triazolo[3,4-c][1,4]diazepin-10-yl)-N-(1-methyl-1H-pyrazol-5-yl)pyrimidin-2-amine] | > 100 nM | > 10 nM |
| Cc1cnc(Nc2ccnn2C)cc1-c1cc2n(c1)C[C@H](F)Cn1c-2nnc1C(F)(F)C(F)(F)F [Compound 75] | > 100 nM | ≤ 5 nM |
| Cc1cnc(Nc2ccnn2C)nc1-c1cc2n(c1)C[C@H](C)n1c-2nnc1C(F)(F)c1c(F)cccc1F [Compound 130] | > 100 nM | 5 to 10 nM |
| Cc1cnc(Nc2ccnn2C)cc1-c1cc2n(c1)C[C@H](CF)n1c-2nnc1C(F)(F)n1nccc1Cl [Compound 151] | ≤ 100 nM | ≤ 5 nM |
| Cn1nccc1Nc1cc(-c2cc3n(c2)C[C@H](CF)n2c-3nnc2C(F)(F)c2ccccc2Cl)c(Cl)cn1 [Compound 206] | ≤ 100 nM | > 10 nM |
| Cc1cnc(Nc2ccnn2C)cc1-c1cc2n(c1)CC(F)(F)Cn1c-2nnc1C1(C(F)(F)F)CC1 [Compound 87] | ≤ 100 nM | ≤ 5 nM |
| Cc1cnc(Nc2ccnn2C)nc1-c1cc2n(c1)C[C@H](C)n1c-2nnc1C(F)(F)c1cccc(F)c1 [Compound 89] | ≤ 100 nM | ≤ 5 nM |
| Cn1nccc1Nc1cc(-c2cc3n(c2)CCCn2c(COCC(F)(F)F)nnc2-3)c(Cl)cn1 [Compound 25] | > 100 nM | ≤ 5 nM |

| SMILES | IC50 [1] | IC50 (MAPK1(ERK2) enzyme) |
| --- | --- | --- |
| Cn1nccc1Nc1cc(-c2cc3n(c2)CCCn2c(Cn4cc(Cl)cn4)nnc2-3)c(Cl)cn1 [Compound 73] | > 100 nM | ≤ 5 nM |
| Cc1cnc(Nc2ccnn2C)nc1-c1cc2n(c1)C[C@H](CF)n1c-2nnc1C(F)(F)c1ccccc1Cl [Compound 176] | ≤ 100 nM | 5 to 10 nM |
| Cc1nonc1C(F)(F)c1nnc2n1[C@@H](CF)Cn1cc(-c3cc(Nc4ccnn4C)ncc3Cl)cc1-2 [Compound 158] | ≤ 100 nM | 5 to 10 nM |
| Cc1cnc(Nc2ccnn2C)cc1-c1cc2n(c1)C[C@H](CF)n1c-2nnc1C(F)(F)C(F)F [Compound 62] | ≤ 100 nM | ≤ 5 nM |
| Cc1cccnc1C(F)(F)c1nnc2n1[C@@H](CF)Cn1cc(-c3cc(Nc4ccnn4C)ncc3Cl)cc1-2 [Compound 175] | > 100 nM | ≤ 5 nM |
| Cn1nccc1Nc1nccc(-c2cc3n(c2)CCCn2c(CSc4ccccc4F)nnc2-3)n1 [Compound 19] | ≤ 100 nM | ≤ 5 nM |
| Cc1cnc(Nc2ccnn2C)cc1-c1cc2n(c1)C[C@H](CF)n1c-2nnc1C(F)(F)c1nonc1C [Compound 101] | ≤ 100 nM | ≤ 5 nM |
| Cc1cnc(Nc2c3c(nn2C)CCC3)nc1-c1cc2n(c1)C[C@H](CF)n1c(Cc3ccccc3F)nnc1-2 [Compound 150] | ≤ 100 nM | ≤ 5 nM |
| Cn1nccc1Nc1cc(-c2cc3n(c2)C[C@H](C(F)F)n2c-3nnc2C(F)(F)n2cc(Cl)cn2)c(Cl)cn1 [Compound 209] | ≤ 100 nM | 5 to 10 nM |
| Cc1nonc1Cc1nnc2n1CCCn1cc(-c3cc(Nc4ccnn4C)ncc3Cl)cc1-2 [Compound 10] | > 100 nM | ≤ 5 nM |
| Cc1cnc(Nc2ccnn2C)nc1-c1cc2c3nnc(C4(C(F)F)CCC4)n3ccn2c1 [Compound 45] | ≤ 100 nM | ≤ 5 nM |
| Cn1nccc1Nc1cc(-c2cc3n(c2)CC(F)(F)Cn2c-3nnc2C2(C#N)CCC2)c(Cl)cn1 [Compound 74] | ≤ 100 nM | ≤ 5 nM |
| Cc1cnc(Nc2ccnn2C)nc1-c1cc2n(c1)C[C@H](C)n1c-2nnc1C(F)(F)c1cc(F)ccc1F [Compound 134] | ≤ 100 nM | 5 to 10 nM |
| Cn1nccc1Nc1cc(-c2cc3n(c2)C[C@H](F)Cn2c-3nnc2C2(C(F)(F)F)CCC2)c(Cl)cn1 [Compound 123] | ≤ 100 nM | ≤ 5 nM |
| Cn1nccc1Nc1nccc(-c2cc3n(c2)CCCn2c(COc4ccccc4F)nnc2-3)n1 [Compound 37] | ≤ 100 nM | ≤ 5 nM |
| Cn1nccc1Nc1cc(-c2cc3n(c2)C[C@H](F)Cn2c-3nnc2C(F)(F)C(F)(F)F)c(Cl)cn1 [Compound 115] | > 100 nM | 5 to 10 nM |
| Cc1cnc(Nc2ccnn2C)nc1-c1cc2n(c1)C[C@H](CF)n1c-2nnc1C(F)(F)c1ccccc1F [Compound 131] | ≤ 100 nM | ≤ 5 nM |
